# Data reported in patent publication US20120077705A1, “Methods for Identifying Autophagy Inducing Compounds” (President and Fellows of Harvard College, priority 2007, published 2012).
# Values joined by “and” are separate entries in the source; they are usually repeats but may differ in a detail not shown here. Equal entries are not always repeated. Where two headings read alike, the source gives them in different places.
# Tests used:
# GFP-polyQ-HA = experiment: Degradation of expanded polyglutamine (GFP-polyQ-HA) in transfected H4 cells, anti-HA blot; assay type: cell-based
# Description: Large-scale accumulation of misfolded protein is a prominent feature of many neurodegenerative diseases. For example, the pathogenic mechanism of Huntington's disease is that a large amount of polyglutamine (polyQ) protein accumulates in the neurons and cannot be cleared away. Tests of polyQ elimination and degradation were used in this experiment to further determine the ability if the tested compounds to induce autophagy.
# The compounds selected through screening were dissolved in DMSO and diluted in a stepwise manner in complete culture medium.
# LC3 II = experiment: Western blot of LC3 II in H4-LC cells; assay type: cell-based
# Source text: The autophagosome marker LC3 used in the compound-screening platform was subjected to the foregoing processing in the cytosol. Generally when the new LC3 synthesized within the cell was processed, it became cytosolic soluble LC3 I with molecular weight 18 Kd. […] The quantity of LC3 II content reflects to a certain degree the autophagic activity of a cell. Therefore, by assaying the content of LC3 II in the cell by means of the Western blot method, it is possible to further reflect the effect of the compound on autophagy.
# H4-LC cells at an appropriate density were inoculated onto a 6-well plate, which was treated with a compound for 4 hours, after which the cells were collected and lysed. The protein fraction was harvested and SDS-PAGE was performed. Following electrophoresis separation the proteins were transferred to a membrane, and immunoblot analysis was performed. The cytoskeleton protein, actin, was used as an internal control.
# FYVE-RFP = experiment: High-content analysis of FYVE-RFP fluorescence (PI(3)P level) in H4-FYVE cell line; assay type: cell-based
# Source text: Class III PI(3)K Vps34 is a multifunctional protein. On the one hand, it catalyzes the phosphorylation of PI to generate PI(3)P and is of key importance in the endocytic and autophagosome membrane transport processes. At the same time, a compound formed from Vps34/beclin1 is involved in the regulation of autophagy initiation signaling. Therefore, while the autophagy process is taking place, the level of PtdIns(3)P should not be expected to decrease to a significant extent. A FYVE domain is a protein structure domain composed of approximately 70 amino acid residues and containing a zinc finger protein structure; it can bind specifically with PI(3)P. Generally, PI(3)P recruits proteins containing a FYVE domain in order to bind to the membrane of cellular organelles, and participate in protein trafficking and similar processes.
# H4 cells were transfected with the fusion protein FYVP-red fluorescent protein (FYVE-RFP). After transfection, the cells were screened in order to obtain a suitable H4-FYVE cell line to be used as a screening platform to perform high-volume screening of compounds, which thereby indirectly reflected the effect of the compound on autophagy. Compounds which reduced FYVE-RFP fluorescence intensity were eliminated. In this experiment, change in the intensity, fluorescence and distribution of the protein marker FYVE-RFP recruited by PI(3)P before and after treatment with the potential autophagy inducing compound was assayed by high-content microscopic analysis.
# DMSO was used to dilute, dissolve, and prepare a compound at different concentrations with each concentration repeated three times. A 96-well plate was inoculated with H4-FYVE cells at an appropriate density and treated with the compound for 2, 4, and 8 hours, respectively. […] If a compound affected FYVE expression or distribution, then this would be embodied precisely in the image and in the size and intensity of fluorescent spots and other numerical values.
# H4-LC3 cells = assay type: cell-based
# Source text: H4 cells were transfected with the LC3-GFP fusion protein, thereby creating, screening, and yielding an H4-LC3 cell line as a screening platform in order to perform high-content screening of 480 known bioactive compounds (ICCB known bioactive library, BIOMOL), using the following method. DMSO was used to dilute, dissolve, and prepare a compound at different concentrations with each concentration repeated three times. A 96-well plate was inoculated with H4-LC3 cells at an appropriate density and treated for 24 hours with the compound. […] If a compound affected LC3 expression or distribution, then this would be embodied precisely in the image and in the size and intensity of fluorescent spots and the like numerical values. This experiment was repeated three times, and the 72 compounds for which LC3-GFP fluorescent intensity was more than 50% greater than that of the blank control group in the three experiments were selected for analysis. Based on the number of cells determined through counting, those compounds in which cell death exceeded 30% (in comparison with the control group) were eliminated. The remaining compounds were further studied as candidate molecules.
# long-lived proteins = experiment: Degradation of (3H) L-leucine labelled long-lived proteins in H4 cells; assay type: cell-based; conditions: relative to blank control
# Source text: The process of autophagy is a protein degradation process, which primarily mediates the degradation of cellular organelles and long-lived proteins within the cell. Therefore, in the present experiment the detection of whether a compound promotes the degradation of long-lived proteins within the cell was used as an additional indicator of whether the tested compound induces autophagy.
# DMSO was used to dilute, dissolve, and prepare a compound at different concentrations with each concentration repeated three times. A 96-well plate was inoculated with H4 cells at an appropriate density and treated with the compound for 2, 4, and 24 hours, respectively. […] One day prior to the experiment, cells were inoculated onto a 12-well plate at an appropriate density and cultured under normal conditions (DMEM +10% fetal calf serum). […] Then, a complete medium containing (3H) L-leucine was used to incubate the cells for 24 hours causing the cells to take in isotope-labeled leucine and undertake protein synthesis. After 24 hours, a complete culture medium was substituted and used to incubate the cells for 24 hours to degrade short-lived proteins. After the short-lived proteins had been degraded, a complete culture medium to which the compound had been added was substituted and used to incubate the cells. The radiation intensity of the culture medium was tested at 0, 1, 2, 4, and 24 hours, respectively. At 24 hours, the cells were collected and the intensity of the isotope within the cells was tested, and the percent of long-lived protein degradation relative to the blank control group at different times after the action of the compound was computed. Compounds that increased the degradation of long-lived proteins were selected by means oft-test.
# [1] = tested on: Ca2+-activated K+ channels; conditions: 10-nM penitrem A; cited from earlier work
# [2] = H4 cells transfected with GFP-polyQ-HA, 24 hours, screening concentration and dilutions 1:2.5, 1:5, 1:10, FIG. 2
# [3] = H4-LC cells, 4 hours, immunoblot, FIG. 1
SMILES,polyQ degradation (GFP-polyQ-HA),Increase of endogenous LC3 II / LC3 II/LC3 I percentage (LC3 II),Relative fluorescent intensity of FYVE-RFP (%) (FYVE-RFP),Relative quantity of cells (%) (H4-LC3 cells; human),Percent relative degradation of long-lived proteins (%) (long-lived proteins; 1 h),Percent relative degradation of long-lived proteins (%) (long-lived proteins; 2 h),Percent relative degradation of long-lived proteins (%) (long-lived proteins; 4 h),Percent relative degradation of long-lived proteins (%) (long-lived proteins; 24 h),Blockage of Ca2+-activated K+ channels [1] [%],polyQ degradation (GFP-polyQ-HA; [2]),Increase of endogenous LC3 II / LC3 II/LC3 I percentage (LC3 II; [3]),"Relative fluorescent intensity of FYVE-RFP (%) (FYVE-RFP; H4-FYVE cells, 2 h)","Relative fluorescent intensity of FYVE-RFP (%) (FYVE-RFP; H4-FYVE cells, 4 h)","Relative fluorescent intensity of FYVE-RFP (%) (FYVE-RFP; H4-FYVE cells, 8 h)",Destruction of H4 cells (H4-LC3 cells; H4 cells)
COC(=O)C1=C(C)NC(C)=C(C(=O)OCCCN2CCC(c3ccccc3)(c3ccccc3)CC2)C1c1cccc([N+](=O)[O-])c1.Cl (stereo not shown) [Niguldipine],increased polyQ degradation,increase of endogenous LC3 II,147.18 ± 25.39% and 148.26 ± 3.67% and 125.53 ± 2.84%,132.78 ± 18.11,71.65 ± 2.68,107.42 ± 2.72,105.68 ± 2.74,117.85 ± 1.98,,,,,,,
C=C(C)[C@H]1O[C@H]2CC[C@@]3(C)[C@@](O)(CC[C@H]4[C@@H]5OC(C)(C)[C@H]6C[C@@H]7C(=C)Cc8c(Cl)cc9[nH]c(c5c9c8[C@@]76O)[C@@]43C)[C@]23O[C@@H]3[C@H]1O [Penitrem A],,,,,92.88 ± 2.83,126.09 ± 0.47,132.13 ± 10.01,141.83 ± 1.25,100,increased polyQ degradation,increase of endogenous LC3 II,121.40 ± 12.66,87.41 ± 5.90,72.71 ± 5.57,does not destroy H4 cells
O=c1[nH]c2ccccc2n1C1CCN(CCCC(c2ccc(F)cc2)c2ccc(F)cc2)CC1 [Pimozide],,,,,129.13 ± 11.46,155.80 ± 9.22,152.01 ± 9.63,162.47 ± 3.50,,increased polyQ degradation,increase of endogenous LC3 II,94.42 ± 4.71,103.96 ± 9.06,73.64 ± 12.18,
CN1CCN(CCCN2c3ccccc3Sc3ccc(C(F)(F)F)cc32)CC1 [Trifluoperazine],,,,,76.62 ± 2.32,105.60 ± 5.01,109.00 ± 5.22,124.78 ± 2.05,,increased polyQ degradation,increase of endogenous LC3 II,136.58 ± 15.74,111.52 ± 13.45,94.28 ± 2.87,
